# Source: patent US6916844B2, “Hydroxy pyranone derivative and preparation method thereof” (Amorepacific Corporation, priority 2002, dated 2005)
# What was measured:
# Human fibroblasts [1] = test: Effect on biosynthesis of collagen (procollagen type (I) ELISA); assay type: cell-based; settings: 10^-4 M, 24 hours, relative to untreated control group = 100
# Protocol: The effect of the hydroxy pyranone derivatives obtained in Examples 1˜6 on biosynthesis of collagen was compared with those of retinol and retinoic acid.
# Human fibroblasts were seeded into a 24-well plate to a density of 10^5 cells/well and then cultured to 90% of growth. The plate was washed with PBS (phosphate buffered saline) and treated with test samples at a concentration of 10^−4M, and then incubated in a CO2 incubator for 24 hours. From its supernatant, procollagen production was measured with procollagen type (I) ELISA kit. The biosynthesis of collagen was evaluated as a relative value compared with that of the control group, which is not treated with sample and of which the value of biosyntheis of collagen was set to be 100.
# Human fibroblasts [2] = test: Collagenase-inhibiting effect (collagenase expression, ELISA kit); assay type: cell-based; settings: 10^-4 M, 24 hours, relative to untreated control group = 100
# Protocol: The collagenase-inhibiting effect of hydroxy pyranone derivatives obtained in Examples 1˜6 was compared with those of retinol and retinoic acid.
# Human fibroblasts were cultured in Dulbecco's Modified Eagle's Medium (DMEM) supplemented with 2.5% fetal bovine serum. The fibroblasts were seeded into a 96-well microtiter plate to a density of 5,000 cells/well, and then cultured to 70˜80% of growth. The plate was treated with test samples at a concentration of 10^−4M for 24 hours, then the cultured medium and the cells were raked up and recovered. From the recovered culture, collagenase production was measured with collagenase kit (Catalog #: RPN 2610) commercialized by Amersham Pharmacia Biotech. First, the recovered culture was added into a 96-well plate wherein primary collagenase antibodies were uniformly spread, and then antigen-antibody reaction was performed in an incubator for 3 hours. Later, secondary collagenase antibodies bonded with chromophore were added to the 96-well plate and reacted for 15 minutes. Then, color former was added thereto in order to induce development at the room temperature for 15 minutes, and 1M of sulfuric acid was added to stop the reaction. The reaction solution became yellow, and the color density depends on the progress of the reaction. The absorbance of the yellow 96-well plate was measured at 405 nm with absorptiometer. The expression of collagenase was calculated by the following equation 1. No sample was treated in the control group.
# [Equation 1] The expression of collagenase (%)=[(Absorbance of test group)/(Absorbance of control group)]×100
# The expression of collagenase was evaluated as a relative value compared with that of the control group of which the expression of collagenase was set to be 100.
# rabbits = test: Primary skin irritation test on animals (Draize P.I.I.); assay type: in vivo; settings: 1% in 1,3-butylene glycol:ethanol=7:3, 0.5 ml, observed 24 and 72 hours later
# Protocol: This test was performed for six (6) healthy male rabbits whose hairs on both sides of the backs were cut. The compounds of Examples 1˜6 were dissolved in 1,3-butylene glycol:ethanol=7:3, to obtain 1% concentration of test samples. 0.5 ml of each test samples were applied to right side area of 2.5 cm×2.5 cm. No sample was treated on left side as a control. 24 hours and 72 hours later, skin abnormality such as erythema, crust and edema was observed. Based on the score of skin response, skin irritation was estimated according to Draize's P.I.I. (Primary Irritation Index) and compared with that of retinoic acid.
# white guinea pigs = test: Phototoxicity test; assay type: in vivo; settings: 1% (w/v) solution, UVA 15 J/cm^2, observed at 24, 48 and 72 hours
# Protocol: This test was performed for ten (10) white guinea pigs whose hairs on both sides of the backs were cut, and fixed. On the back of the guinea pig, six (6) test sites measuring 2.5 cm×2.5 cm, three (3) per each side, were sectioned. Right sites were prepared as controls with no irradiation (UV non-irradiation sites) and left sites were irradiated (UV irradiation sites). Vehicle (1,3-butylene glycol:ethanol=7:3) was used as a negative control, and 0.1% concentration of 8-MOP (methoxypsoralene) was used as a positive control; and 1% (w/v) solutions of the compounds of Examples 1˜6 were applied to either site with an amount of […] for each site. 30 minutes later, right sites were shielded with aluminum foil and UVA(320˜380 nm) was irradiated at a distance of about 10 cm therefrom with Waldmann to the final energy of 15 J/cm^2. After 24, 48 and 72 hours elapsed, skin response of guinea pig was observed. Erythema and edema were scored from 0 to 4 points as shown in the Table 3, and skin response was evaluated by summing the scores. Maximum scores were selected when measured on each elapsed time, i.e. 24, 48 and 72 hours, and irritation index was calculated according to the following equation 2. Then, phototoxic index was calculated according to the following equation 3.
# [Equation 2] Irritation index=(Maximum of erythema+Maximum of edema)/Number of animals [Equation 3] Phototoxic index=(Irritation index of UV irradiation site)−(Irritation index of UV non-irradiation site)
# [3] = system: healthy females and males; test: Human patch test; assay type: in vivo; settings: 1% in patch base
# Protocol: This test was performed for thirty (30) healthy females and males aged on average 24.8 years and having no experience of hypersensitivity, according to method of CTFA Guideline (The Cosmetic, Toiletry and Fragrance Association. Inc. Washington, D.C., 20023, 1991). Each compound of Examples 1˜6 was dissolved in patch base having the composition of Table 6 to be 1% concentration as for test materials, and 20 μl of each test materials was dropped into a Finn chamber respectively, then attached to the forearm of the subject and fixed with a micropore tape. After 24 hours of patching, the patches were removed and the test sites were marked with marking pen. The observations of the test sites were made after 24 and 48 hours from the patching.
# The average response of Table 8 was calculated by the following equation 4. [formula]
substance,measurement,setting,value
"((3E)-4-(2H,3H-benzo [3,4-d] 1,3-dioxolan-5-yl)-2-oxobut-3-enyloxy)-5-hydroxy-4H-pyran-4-one [Compound of Ex. 3]",Biosynthesis of collagen (%),Human fibroblasts [1],123%
same,Expression of collagenase (%),Human fibroblasts [2],78%
same,Evaluation (skin irritation),rabbits,No irritation
same,P. I. I. (Primary Irritation Index),rabbits,0.375
same,Evaluation (phototoxicity),white guinea pigs,No phototoxicity
same,Phototoxic index,white guinea pigs; below 0.5 = no phototoxicity,0
same,Average Response (n = 30),"[3]; calculated by equation 4, below 1 = no irritation",0.00
same,"Number of the subjected showing response, 24 hours later, − (No visible response)","[3]; n = 30, 24 hours later, grade 0",30
same,"Number of the subjected showing response, 24 hours later, ± (Mild erythema)","[3]; n = 30, 24 hours later, grade 1",0
same,"Number of the subjected showing response, 24 hours later, + (Intense erythema)","[3]; n = 30, 24 hours later, grade 2",0
same,"Number of the subjected showing response, 24 hours later, + + (Intense erythema with edema)","[3]; n = 30, 24 hours later, grade 3",0
same,"Number of the subjected showing response, 24 hours later, + + + (Intense erythema with edema and vesicle)","[3]; n = 30, 24 hours later, grade 4",0
same,"Number of the subjected showing response, 48 hours later, − (No visible response)","[3]; n = 30, 48 hours later, grade 0",30
same,"Number of the subjected showing response, 48 hours later, ± (Mild erythema)","[3]; n = 30, 48 hours later, grade 1",0
same,"Number of the subjected showing response, 48 hours later, + (Intense erythema)","[3]; n = 30, 48 hours later, grade 2",0
same,"Number of the subjected showing response, 48 hours later, + + (Intense erythema with edema)","[3]; n = 30, 48 hours later, grade 3",0
same,"Number of the subjected showing response, 48 hours later, + + + (Intense erythema with edema and vesicle)","[3]; n = 30, 48 hours later, grade 4",0
